Legend:
[1] = test system: AMARE; test: greenhouse pre-emergence herbicidal test; format: in vivo, Amaranthus retroflexus; settings: 0.5 kg/ha, scale 0 to 100
Description: The seeds of the test plants were sown separately for each species. For the pre-emergence treatment, the active compounds, which had been suspended or emulsified in water, were applied directly after sowing by means of finely distributing nozzles. The containers were irrigated gently to promote germination and growth and subsequently covered with transparent plastic hoods until the plants had rooted. This cover caused uniform germination of the test plants, unless this has been impaired by the active compounds. Depending on the species, the plants were kept at 10-25° C. or 20-35° C. The test period extended over 2 to 4 weeks. During this time, the plants were tended, and their response to the individual treatments was evaluated. Evaluation was carried out using a scale from 0 to 100. 100 means no emergence of the plants, or complete destruction of at least the aerial moieties, and 0 means no damage, or normal course of growth. A good herbicidal activity is given at values of at least 70 and a very good herbicidal activity is given at values of at least 85. [table]

[2] = test system: ABUTH; test: greenhouse post-emergence herbicidal test; format: in vivo, Abutilon theophrasti; settings: 3.0 kg/ha, scale 0 to 100
Description: The seeds of the test plants were sown separately for each species. For the post-emergence treatment, the test plants were first grown to a height of 3 to 15 cm, depending on the plant habit, and then treated with the active compounds which had been suspended or emulsified in water. For this purpose, the test plants were either sown directly and grown in the same containers, or they were first grown separately as seedlings and transplanted into the test containers a few days prior to treatment. Depending on the species, the plants were kept at 10-25° C. or 20-35° C. The test period extended over 2 to 4 weeks. During this time, the plants were tended, and their response to the individual treatments was evaluated. Evaluation was carried out using a scale from 0 to 100. 100 means no emergence of the plants, or complete destruction of at least the aerial moieties, and 0 means no damage, or normal course of growth. A good herbicidal activity is given at values of at least 70 and a very good herbicidal activity is given at values of at least 85. [table]

Structure (SMILES) | herbicidal activity against AMARE [1] | herbicidal activity against ABUTH [2]
O=c1oc2cccnc2c(O)c1-c1cc(C(F)(F)F)ccc1C(F)(F)F [I-35] | very good (a very good herbicidal activity is given at values of at least 85) | –
O=c1oc2ccc(O)nc2c(O)c1-c1ccccc1C(F)(F)F [I-23] | – | good (A good herbicidal activity is given at values of at least 70)

From patent US8338337B2, “Substituted pyridines having a herbicidal effect” (BASF SE, priority 2008, dated 2012)
